Reference: article PMC12388506, “Preclinical Evaluation of 2-Aminobenzothiazole Derivatives: In Silico, In Vitro, and Preliminary In Vivo Studies as Diabetic Treatments and Their Complications” (Molecules, 2025)

Assays:
[1] = tested on: STZ-HFD-induced T2D Wistar rats; assay: Acute evaluation of blood glucose in STZ-HFD-induced T2D model; type: in vivo, rat; conditions: 8d 32 mg/Kg oral
Method: In vivo experiments were conducted in an acute and a subchronic model, where Wistar rats (180–220 g) were used. The study covered a total period of 10 weeks and was carried out under the Mexican Standard, and the “Guide for the Care and Use of Laboratory Animals” of the National Research Council and Health Institutes was followed.
At first, animals were housed in polypropylene cages under conditions of controlled temperature (20–25 °C), relative humidity (36–60%), and light/dark cycles, with water ad libitum. Before starting the experiment, they were given a one-week acclimatization period to adapt to their new habitat. Once finalized, animals were fed an HFD for 3 weeks to generate insulin resistance.
After this period, the animals fasted for 12 h and then were administered intraperitoneally with a single dose of 35 mg/Kg of STZ dissolved in a buffer of 0.1 M citrate, pH 4.5 (prepared on the same day of administration). […]
One week after administration, postprandial blood glucose levels were measured by venipuncture using a glucometer. […]
Once the experimental groups were formed, a fixed schedule was established for the daily oral administration of the respective treatments. […] On the third day of treatment, postprandial blood glucose was measured with a glucometer Freestyle® (Abbott Diabetes Care, Alameda, CA, USA), extracting a drop of blood from the caudal vein of each rat. […]

[2] = tested on: TNF-α; assay: Ex vivo serum TNF-α quantification; type: in vivo, rat
Method: At the end of the study, animals fasted for 12 h and were taken to a humane endpoint, where blood samples were obtained. These were kept at room temperature for 30 min and then centrifuged at 4000 RPM for 15 min at 4 °C. Finally, the serum was used to perform 24-element blood chemistry and quantify Trolox-equivalent TAC [86], TNF-α [87], and IL-6 levels using commercial kits from Merck (Darmstadt, Germany), Sigma-Aldrich (St. Louis, MO, USA), Cat. No. MAK334-1KT, RAB0479-1KT, and RAB0311-1KT, respectively. In addition, insulin was quantified using the Rat Ins1/Insulin ELISA Kit, from Sigma-Aldrich, No. Cat. RAB0904-1KT [89] to determine the HOMA-IR index. All kits were performed according to the manufacturer’s instructions without modifications.

[3] = FRAP assay
Method: All synthesized compounds were evaluated at 30 μM, 50 μM, 70 μM, 90 μM, and 110 μM under two of the most widely used methods in research to directly measure the antioxidant and anti-radical intrinsic capacity, FRAP, and ABTS assay, which were validated by a dose–response curve of 5-ASA as a reference. In the same way, these tests were carried out in triplicate using an assay kit (from Pharmaceutical and Biotechnological Innovation-Services) according to the manufacturer’s instructions.

[4] = tested on: male Wistar rat; assay: Acute oral toxicity, Up and Down procedure (OECD 425); type: in vivo; set-up: Heart weight / IWA (initial weight of animals) / FWA (final weight of animals) / Spleen weight / Liver weight / Intestine weight / Stomach weight / Kidney weight: unit not given here
Method: All synthesized compounds (8c, 8d, and 12d as a racemic mixture) were suspended in 2% Tween 80 in water and administered orally by an esophageal cannula following the “Up and Down” methodology. Nevertheless, compounds could not be solubilized in the desired volume to complete the highest dose (1750 mg/Kg), so the toxicity test was performed with a maximum dose of 1250 mg/Kg. Even so, the values obtained indicate that these compounds are classified within toxicity category 4 according to the guidelines established by the Organization for Economic Co-operation and Development (OECD).
The “Up and Down” procedure of OECD Guideline 425 was used to estimate the LD50 value of synthesized compounds. Briefly, a dose of 175 mg/Kg was administered to a male Wistar rat, which was monitored continuously for 48 h. As the animal survived, a second animal received a dose of 550 mg/Kg, and, as it survived, a third animal received an increasing dose of 1750 mg/Kg. Finally, two other rats were administered the same dose. All animals were kept under observation for 14 days, and 24 h later, they were taken to the humane endpoint for macroscopic examination of organs and tissues. Finally, the LD50 value of the compounds was estimated to determine their degree of toxicity and classified based on the GHS of Classification and Labeling of Chemicals.

[5] = 1250 mg/Kg oral, necropsy, mean ± SEM

With `COC(=O)[C@H](Cc1ccccc1)N/C(=N\c1nc2ccccc2s1)SC` [8d, Methyl (E)-((benzo[d]thiazol-2-ylimino)(methylthio)methyl)-L-phenylalaninate] the “blood glucose after a single administration, without prior fasting” value [1] was ~ 200 mg/dL, the TNF-α ([2]; Table S11, After 5 weeks of treatment) was 5417.72 ± 2104.18 pg/mL and the TNF-α ([2]; serum, end of treatment, mean ± SEM, n = 4) was 5417.72 ± 2104.2 pg/mL. For the same compound, the “Percentage reduction of ferric ion to ferrous ion (FRAP)” value (shortened to “Percentage reduction of ferric ion”) ([3]; 30 µM) was 12.7%, the “Percentage reduction of ferric ion” value ([3]; 50 µM) was 14.1% and the “Percentage reduction of ferric ion” value ([3]; 70 µM) was 15.1%. The “Percentage reduction of ferric ion” value ([3]; 90 µM) was 16.9%, the “Percentage reduction of ferric ion” value ([3]; 110 µM) was 18.4% and the “FWA (final weight of animals)” value ([4]; 1250 mg/Kg oral, after 14 days, mean ± SEM) was 310.57 ± 11.6. For the same compound, the “IWA (initial weight of animals)” value ([4]; 1250 mg/Kg oral, mean ± SEM) was 201.0 ± 7.17, the Heart weight [4, 5] was 1.30 ± 0.03 and the Intestine weight [4, 5] was 29.97 ± 0.72. The Kidney weight [4, 5] was 2.97 ± 0.03, the Liver weight [4, 5] was 17.57 ± 0.50 and the Spleen weight [4, 5] was 0.67 ± 0.07. The Stomach weight [4, 5] was 1.70 ± 0.10 and the “toxicity category (OECD)” value ([4]; maximum dose 1250 mg/Kg oral) was 4.
